Source: US20230382871A1, “CSF1R KINASE INHIBITOR AND USE THEREOF” (SHANGHAI INSTITUTE OF MATERIA MEDICA, CHINESE ACADEMY OF …, priority 2020, published 2023)
Values joined by “and” are separate entries in the source; they are usually repeats but may differ in a detail not shown here. Equal values may be shown once.

Columns and labels:
[1] = system: human glioma U87MG subcutaneous xenografts; assay: Human glioma U87MG subcutaneous xenografts in nude mice; format: in vivo, BALB/c nude mice; details: 40 mg/kg bid × 21 po
Protocol: BALB/c nude female mice of 3-4 weeks old were used, and were provided by […] […] OF MATERIA MEDICA, CHINESE ACADEMY OF SCIENCES.
Human glioma U87MG cells were subcutaneously inoculated into the right axillary fossa of a nude mouse (5×10^6 cells/mouse). After a xenograft was formed, the tumor was transferred to a nude mouse for 1 passage.
Tumor tissues at the vigorous growth stage were removed and cut into pieces of approximately 1.5 mm^3. The tumor fragments were inoculated subcutaneously into the right axillary fossa of nude mice under aseptic conditions. The diameters of the subcutaneous xenografts in nude mice were measured with a vernier caliper. The animals were randomly grouped after the xenografts reached an average volume of about 90 mm^3. Compound I was administered orally at doses of 40 mg/kg, 20 mg/kg and 10 mg/kg twice a day for 21 consecutive days. An equal volume of a blank preparation was administered orally twice a day for 21 consecutive days. The positive control drug Axitinib was administered orally at a dose of 40 mg/kg group twice a day for 21 consecutive days. An equal volume of water for injection was administered to the animals in the solvent group. Throughout the experiment, the diameters of the xenografts were measured twice a week and the mice were weighed at the same time. The tumor volume (TV) was calculated as TV=½×a×b^2, where “a” and “b” denote the length and width of a tumor, respectively. The relative tumor volume (RTV) was calculated from the measurement results with the calculation formula RTV=Vt/V0, in which V0 is the tumor volume measured upon administration after grouping (i.e., D0) and Vt is the tumor volume from each measurement. The evaluation index of anti-tumor activity is the relative tumor proliferation rate T/C (%), which is calculated as T/C (%)=(TRTV/CRTV)×100%, in which TRTV denotes the RTV from the treatment group and CRTV denotes the RTV from solvent group.

[2] = system: human colorectal cancer HT-29 subcutaneous xenografts; assay: Human colorectal cancer HT-29 subcutaneous xenografts in nude mice; format: in vivo, BALB/c nude mice; details: 40 mg/kg bid × 21 po
Excerpt: BALB/c female nude mice of 6 weeks old were used, and were provided by Shanghai Lingchang Biotechnology Co., Ltd.
Human colorectal cancer HT-29 cells were subcutaneously inoculated into the right axillary fossa of a nude mouse (5×10^6 cells/mouse). After a xenograft was formed, the tumor was transferred to a nude mouse for 1 passage.
Tumor tissues at the vigorous growth stage were removed and cut into pieces of approximately 1.5 mm^3. The tumor fragments were inoculated subcutaneously into the right axillary fossa of nude mice under aseptic conditions. The diameters of the subcutaneous xenografts in nude mice were measured with a vernier caliper. The animals were randomly grouped after the xenografts reached an average volume of about 120 mm^3. Compound I was administered orally at doses of 20 mg/kg, 10 mg/kg and 5 mg/kg twice a day for 21 consecutive days. An equal volume of a blank preparation was administered orally twice a day for 21 consecutive days. The positive control drug Axitinib was administered orally at a dose of 40 mg/kg group twice a day for 21 consecutive days. An equal volume of water for injection was administered to the animals in the solvent group. Throughout the experiment, the diameters of the xenografts were measured twice a week and the mice were weighed at the same time. The tumor volume (TV) was calculated as TV=½×a×b^2, where “a” and “b” denote the length and width of a tumor, respectively. The relative tumor volume (RTV) was calculated from the measurement results with the calculation formula RTV=Vt/V0, in which V0 is the tumor volume measured upon administration after grouping (i.e., D0) and Vt is the tumor volume from each measurement. The evaluation index of anti-tumor activity is the relative tumor proliferation rate T/C (%), which is calculated as T/C (%)=(TRTV/CRTV)×100%, in which TRTV denotes the RTV from the treatment group and CRTV denotes the RTV from solvent group.

[3] = system: macrophage marker F4/80 in U87MG tumor tissues; assay: Immunohistochemistry of macrophage marker F4/80 in U87MG tumor tissues; format: in vivo, nude mice; details: 40 mg/kg, compared with blank preparation group
Protocol: (§1) At the end of the in vivo experiments, U87MG and HT-29 xenografts in nude mice were removed and fixed with […] to prepare paraffin sections.
(§2) Expression of individual proteins was assessed using multiplicative quick score method (MQS). This evaluation method takes into account both the staining intensity and the staining range. The method estimates the proportion of positive cells and gives a range score from 1 to 6 (1=1%-4%; 2=5%-19%; 3=20%-39%; 4=40%-59%; 5=60%-79%; 6=80%-100%). The average intensity score of positive stained cells was 0 to 3 (0=no staining; 1=weak staining; 2=moderate staining; 3=strong staining). The total score a (minimum 0 and maximum 18) is then calculated by multiplying the range score by the intensity score.
(§3) For detecting the changes in the macrophage marker F4/80 and M2-type macrophage marker CD206 in the U87MG tumor tissues, quantitative analysis (solvent: n=6, blank preparation: n=6, Compound I (10 mg/kg): n=6, Compound I (20 mg/kg): n=6, Compound I (40 mg/kg): n=6, Axitinib: n=4) was performed on all sections and the experimental data were analyzed for significant differences using the t-test. * denotes p<0.05 as compared with the blank preparation group, ** denotes p<0.01 as compared with the blank preparation group, and denotes p<0.001 as compared with the blank preparation group.

[4] = system: M2-type macrophage marker CD206 in U87MG tumor tissues; assay: Immunohistochemistry of M2-type macrophage marker CD206 in U87MG tumor tissues; format: in vivo, nude mice; details: 40 mg/kg
Protocol: as §1, §2, §3

[5] = system: macrophage marker F4/80 in HT-29 tumor tissues; assay: Immunohistochemistry of macrophage marker F4/80 in HT-29 tumor tissues; format: in vivo, nude mice; details: Compound I 5, 10, 20 mg/kg; Axitinib 40 mg/kg
Protocol: At the end of the in vivo experiments, U87MG and HT-29 xenografts in nude mice were removed and fixed with […] to prepare paraffin sections. Expression of individual proteins was assessed using multiplicative quick score method (MQS). This evaluation method takes into account both the staining intensity and the staining range. […] The average intensity score of positive stained cells was 0 to 3 (0=no staining; 1=weak staining; 2=moderate staining; 3=strong staining). The total score a (minimum 0 and maximum 18) is then calculated by multiplying the range score by the intensity score.

[6] = system: M2-type macrophage marker CD206 in HT-29 tumor tissues; assay: Immunohistochemistry of M2-type macrophage marker CD206 in HT-29 tumor tissues; format: in vivo, nude mice; details: Compound I 5, 10, 20 mg/kg; Axitinib 40 mg/kg
Protocol: as §1, §2
as §3, with “the HT-29” for “the U87MG”, “(solvent: n=12,” for “(solvent: n=6,”, “preparation: n=6, Compound I (5 mg/kg):” for “preparation:”, “n=6,” for “n=6, Compound I (40 mg/kg): n=6,”, “Axitinib: n=6)” for “Axitinib: n=4)”

[7] = system: human glioma U87MG brain in situ transplantation; assay: Survival in U87MG brain in situ transplantation model in nude mice; format: in vivo, BALB/cA nude mice
[8] = system: BMDM cells; assay: CCK8 cell proliferation inhibition assay on CSF1-stimulated bone marrow-derived macrophages; format: cell-based, mice (BALB/c); details: Mus musculus, 72 h exposure
Protocol: Mice (BALB/c) were subjected to euthanasia and then immersed in 75% alcohol for 3-5 min. The tibias and femurs of the mice were removed with ophthalmic forceps and ophthalmic clips on an ultraclean table. The tibial and femoral joints were cut off and bone marrow cells were washed out with a sterile buffer. Bone marrow cells were filtered with a 70 µm nylon membrane. The filtrate was centrifuged and the supernatant was discarded. An erythrocyte lysate was added to the pellets, which were allowed to incubate for 3-4 min. Then, a sterile buffer was added to stop the lysis reaction. The reactant was centrifuged and the supernatant was discarded, thereby yielding bone marrow cell pellets. The cells were cultured in 1640 medium (supplemented with FBS and 10 ng/mL of CSF1) for 5 to 7 days and identified as macrophages by flow cytometry. CCK8 cell counting kits were used in this assay. Bone marrow-derived macrophages, after induction by CSF1 for 5 to 7 days, were seeded into 96-well culture plates and allowed to incubate overnight. Then, the cells were exposed to compounds at various concentrations for 72 h. A blank control group was set. 10 μL of CCK8 reagent was added to each well and the places were placed in an incubator for 4 to 12 h. The plates were read with a microplate reader at a wavelength of 450 nm. […] Each experiment was independently repeated for three times.

[9] = treated patients; cited from earlier work
[10] = 40 mg/kg, implantation day as Day 0

CNC(=O)c1ccccc1Sc1ccc2c(/C=C/c3ccccn3)n[nH]c2c1 [Axitinib, reference compound]
Body Weight (g) D 0 ([1]; D 0): 16.0 g
TV (mm^3, mean ± SD) D 0 ([1]; D 0): 88 ± 17 mm^3
Body Weight (g) D 21 ([1]; D 21): 18.0 g
RTV (mean ± SD) ([1]; D 21): 9.08 ± 5.66
TV (mm^3, mean ± SD) D 21 ([1]; D 21): 795 ± 478 mm^3
T/C (%) ([1]; Day 21): 30.27%
Body Weight (g) D 0 ([2]; D 0): 19.1 g
TV (mm3, mean ± SD) D 0 ([2]; D 0): 123 ± 35 mm3
Body Weight (g) D 21 ([2]; D 21): 17.5 g
RTV (mean ± SD) ([2]; D 21): 4.30 ± 1.82
TV (mm3, mean ± SD) D 21 ([2]; D 21): 505 ± 202 mm3
T/C (%) ([2]; Day 21): 48.88%
expression of F4/80 in macrophages, U87MG tumor tissue [3]: no significant effect
expression of M2-type macrophage marker CD206, U87MG tumor tissue [4]: no significant effect
expression of F4/80, HT-29 tumor tissue [5]: no inhibitory activity
expression of CD206, HT-29 tumor tissue [6]: no inhibitory activity
Median survival time, MST ([7]; 40 mg/kg po twice a day from Day 8): 41 days and 41.0 days
day of first death in the group [7, 10]: 28 days
day of last death in the group [7, 10]: 48 days
ILS (%), Increase in Life Span ([7]; 40 mg/kg, vs solvent group MST): −10.87%

FC(F)(F)c1ccc(CNc2ccc(Cc3c[nH]c4ncc(Cl)cc34)cn2)cn1 [PLX3397, Pexidartinib, reference compound]
IC50 [8]: 30 ± 9 nM

Yervoy: an anti-CTLA-4 antibody
patients experiencing immune-related adverse events [9]: up to 60%
share of immune-related adverse events that were severe (grade 3-4) [9]: 10-30%
